Test system: primary AML cells
Test: Immunoblot densitometry in primary AML cells
Format: cell-based, human
Details: 5 µM DDA, 24 h
Experimental: Immunoblotting was carried out as described previously. Proteins were separated on SDS-PAGE gels, electro-transferred onto polyvinylidene difluoride membranes and incubated overnight at 4 °C with the following antibodies: anti-Atg3, anti-Atg5 (D1G9), anti-Atg7 (D12B11), anti-Beclin (D40C5), anti-caspase-3 (Cell Signaling), anti-Bcl-2 (Millipore), anti-Bax (Millipore), anti-LC3 (Sigma-Aldrich), anti-LXRα (SantaCruz), anti-LXRβ (SantaCruz), anti-Nur77 (Active motif), anti-NOR1 (R&D systems), anti-PARP (Cell Signaling), anti-Vps34 (Cell Signaling), or anti-Actin (Millipore). For visualization, an ECL plus kit (Amersham Biosciences) was used, and chemiluminescence was measured by autoradiography (Supplementary Fig. 9). Specific bands were quantified with ImageQuant software.
AML patient and normal bone marrow samples were obtained from patients in the Hematology Department of Toulouse (France), after obtaining consent in accordance with the Declaration of Helsinki[67], and according to institutional guidelines. Samples were stored at the INSERM-1037 HIMIP collection (no. DC-2008-307-CPTP1 HIMIP). For some experiments, fresh leukemic blasts recovered at diagnosis were immediately treated with DDA. In other cases, frozen cells were thawed in IMDM medium with 20% FBS. Patient characteristics are shown in supplementary data 1. Normal bone marrow cells were subjected to Ficoll-Paque density gradient separation to isolate mononuclear cells, followed by CD34+ cell separation using high-gradient magnetic-activated cell sorting, according to the manufacturer’s manual. The in vivo assays were performed with cryopreserved cells. […]
All data or images are
representative of 3 independent experiments.

## CC(C)CCC[C@@H](C)[C@H]1CC[C@H]2[C@@H]3C[C@@H](NCCc4cnc[nH]4)[C@@]4(O)C[C@@H](O)CC[C@]4(C)[C@H]3CC[C@]12C [DDA, Dendrogenin A]
AML#4
  LC3-II protein, densitometry relative to vehicle: 3.4
  LXRβ protein, densitometry relative to vehicle: 0.9
  NOR1 protein, densitometry relative to vehicle: 2
  Nur77 protein, densitometry relative to vehicle: 1.4
AML#5
  LC3-II protein, densitometry relative to vehicle: 3
  LXRβ protein, densitometry relative to vehicle: 0.7
  NOR1 protein, densitometry relative to vehicle: 2.2
  Nur77 protein, densitometry relative to vehicle: 1.7
